From patent US20090048336A1, “ESCITALOPRAM OXALATE POWDERS” (priority 2007, published 2009)
Structures can show the parent of a compound that is named as a salt.

Assay: Particle size distribution of micronized escitalopram oxalate batches (laser light diffraction, Malvern instrument)
Type: physicochemical
Settings: micronized powder; for D50/D95: ratio of D50 to D95; for D50: size below which 50 volume percent of particles lie; for D50 / D95: Malvern instrument; for D95: size below which 95 volume percent of particles lie
Source text: The term D95 as used herein is defined as a size of particles where 95 volume percent of the particles have sizes less than the value given. The term D50 defines a size where 50 volume percent of the particles have sizes less than the value given.
The particle size distributions for the present application can measured using laser light diffraction equipment, such as are sold by Malvern Instruments Ltd., Malvern, Worcestershire, United Kingdom. Other types of equipment are also suitable for particle size distribution determinations.
The obtained solid was micronized in a jet mill to produce desired particle sizes. The feed pressure was adjusted to about 2 Kg/cm^2; the chamber pressure was adjusted to about 1.5 Kg/cm^2 and the feed rate to about 1 to 2 kg/hour. The material fed into the micronizer through a charging hopper. The obtained micronized material was collected into a container.

Compound | D50/D95 (listed as 1) | D50 (listed as 1) | D95 (listed as 1) | D50/D95 (listed as 2) | D50 (listed as 2) | D95 (listed as 2)
CN(C)CCCC1(c2ccc(F)cc2)OCc2cc(C#N)ccc21 (stereo not drawn) [Batch 1, S-(+)-1-[3-(dimethyl-amino)propyl]-1-(p-fluorophenyl)-5-phthalancarbonitrile oxalate] | 0.4293 | 3.95 | 9.20 |  |  | 
CN(C)CCCC1(c2ccc(F)cc2)OCc2cc(C#N)ccc21 (stereo not drawn) [Batch 2, S-(+)-1-[3-(dimethyl-amino)propyl]-1-(p-fluorophenyl)-5-phthalancarbonitrile oxalate] |  |  |  | 0.4653 | 4.56 | 9.80
